# Results published in patent publication US20030032674A1, “Use of unsaturated fatty acids to treat severe inflammatory diseases” (priority 2001, published 2003).
# Tested on: COX-2 expression
# Experiment: COX-2 immunoblot (Western blot) in RAW 264.7 cells
# Assay type: cell-based, murine
# Description: Cell culture—RAW 264.7 cells (a murine macrophage-like cell line, ATCC TIB-71), 293T cells (a human embryonic kidney cell line, provided by Sam Lee, Beth Israel Hospital. Boston, Mass.), and HT-29 cells (a human colon adenocarcinoma cell line, ATCC HTB-38) were cultured in Dulbecco's modified Eagle's medium (DMEM) containing 10% (v/v) heat-inactivated fetal bovine serum (FBS, Intergen) and 100 units/ml Penicillin and […] Streptomycin (GIBCO-BRL) at 37° C. in a 5% CO2/air environment. Cells (2×10^6) were plated in 60-mm dishes and cultured for an additional 18 hours to allow the number of cells to approximately double. Cells were maintained in serum-poor (0.25% FBS) medium for another 18 hours prior to the treatment with indicated reagents.
# Preparation of fatty acids-albumin complexes—All fatty acids were solubilized in ethanol, and then combined with fatty acid-free and low-endotoxin BSA at a molar ratio of 10:1 (fatty acid: albumin) in serum-poor medium (0.25% FBS). Fatty acids-albumin complex solution was freshly prepared prior to each experiment.
# Sodium dodecyl sulfate-polyacrylamide gel electrophoresis (SDS-PAGE) and immunoblotting—These procedures were performed as previously described in D. Hwang et al., “Expression of mitogen-inducible cyclooxygenase induced by lipopolysaccharide: mediation through both mitogen-activated protein kinase and NF-kappaB signaling pathways in macrophages,” Biochem. Pharmacol., vol. 54, pp. 87-96 (1997). Briefly, solubilized proteins were subjected to 8% SDS-PAGE for COX-2, iNOS, IL- 1α and GAPDH immunoblot analyses. Following electrophoresis, the gel was transferred to a PVDF membrane and the membrane was blocked to prevent non-specific binding of antibodies in TBS-T [20 mM Tris HCl, 137 mM NaCl, 0.05% (v/v) Tween 20, pH 7.6] containing 5% non-fat dried milk (Carnation). Immunoblotting was performed using respective polyclonal antibodies followed by incubation with anti-rabbit IgG coupled to horseradish peroxidase. The membrane was exposed on an X-ray film (Kodak) using ECL western blot detection reagents (Amersham).
# After 11 h, cell lysates were analyzed by COX-2, iNOS, IL-1α, or GAPDH immunoblot using a Western blot analysis.
# The cell lysates were analyzed by COX-2 or GAPDH immunoblot.
# RAW 264.7 cells were pretested with various concentrations (5, 10, 20, and 50 μM) of docosahexaenoic acid (C22:6n-3) for 3 hours, and then stimulated with LPS (100 ng/ml) for 8 hours and analyzed by COX-2, iNOS, IL-1 a or GAPDH immunoblot.
# Cells stably transfected with NFκB(5×) or COX-2 promoter reporter genes were pretreated with various concentrations of each fatty acid for 3 hrs. Cells were then treated with LPS (200 ng/ml). After 8 hrs, cell lysates were prepared and luciferase activities were determined. Data are expressed as a percentage of LPS treatment alone. The results for NFκB and COX-2 expression are given in FIGS. 8A and 8B, respectively. The values are mean±SEM (n=3) of RLA, relative luciferase activity. In FIG. 8C, the cells were pretreated with DHA (20 μM) or C12:0 (75 μM) for 3 hrs and further stimulated with LPS (200 ng/ml for DHA; 1 ng/ml for C12:0). After 8 hr, cell lysates were analyzed by COX-2 and actin immunoblotting.
compound,measurement,setting,value
CCCCCCCCCCCC(=O)O [lauric acid],effect on LPS-induced COX-2 expression (immunoblot),"DHA 20 μM or C12:0 75 μM 3 hrs, LPS 200 ng/ml for DHA, 1 ng/ml for C12:0, 8 hr",potentiated
same,COX-2 expression induced by fatty acid (immunoblot),"RAW 264.7, lauric acid 1, 10, 50, 100 μM with BSA, 11 h",induced
